According to patent publication US20250351832A1, “PHYTOCHEMICALS AS BIOPESTICIDES AND BIOSTIMULANTS” (KAY BEE BIO ORGANICS PVT. LTD., priority 2024, published 2025):
Read-outs that look alike come from different tables or passages of the source.

Legend:
Alternaria alternata [1] = experiment: In vitro poisoned food technique against fungus (Ex. 20); type: cell-based; conditions: poisoned food technique, PDA medium, dose 1 ml/gm/lit., after seven days; for inhibition of growth at 1 mL or g/L: vs untreated control, read-out: % Inhibition of growth
Alternaria alternata [2] = experiment: Alternaria leaf spot/blight on inoculated tomato plants (Ex. 28); type: in vivo; conditions: tomato plants, Alternaria alternata; after 7 days; dose 1 ml/gm/lit
tomato seedlings = experiment: Response of tomato plants, greenhouse growth (Ex. 30); type: in vivo; conditions: tomato seedlings, dose 1 ml/gm/lit; for Plant Height 5th Day / Stem Girth 5th Day / CCI 5th Day: 5th day after application; for Plant Height 10th Day / Stem Girth 10th Day / CCI 10th Day: 10th day after application; for Plant Height % Increase over pre on 10th Day / Stem Girth % Increase over pre on 10th Day / CCI % Increase over pre on 10th Day / Root Length (cm) 10th Day / Root Length % Increase over control: 10th day; for Root Length % Increase over control: vs water control
chili seedlings = experiment: Response of chili plants, greenhouse growth (Ex. 31); type: in vivo; conditions: chili seedlings, dose 1 ml/gm/lit; for CCI 5th Day / Plant Height (cm) 5th Day: 5th day after application; for CCI 10th Day / Plant Height (cm) 10th Day: 10th day after application; for CCI % Increase over pre on 10th Day / Plant Height % Increase over pre on 10th Day / Root Lenght (cm) 10th Day / Stem Girth % Increase over pre on 10th Day / Root Lenght % Increase over control: 10th day; for Root Lenght % Increase over control: vs water control
Aphid [3] = conditions: Dose 1 ml/gm/lit.; for Total No. of dead insect at 48 Hrs.: 10 insects/treatment, 4 replications, cotton leaves
Mite [4] = conditions: Dose 1 ml/gm/lit.; for Total No. of dead insect at 48 Hrs.: 10 insects/treatment, 4 replications, okra leaves
Mealy Bug [5] = conditions: Mealy Bug on cotton leaves, dose 1 ml/gm/lit., 48 Hrs.; for Total No. of dead insect at 48 Hrs.: 10 insects/treatment, 4 replications; for % Corrected Mortality at 48 Hrs.: corrected for water control
Helicoverpa armigera [6] = conditions: Helicoverpa armigera on okra fruits, dose 1 ml/gm/lit., 72 Hrs.; for Total No. of dead insect at 72 Hrs.: 10 insects/treatment, 4 replications; for % Corrected Mortality at 72 Hrs.: corrected for water control
Spodoptera litura [7] = conditions: Spodoptera litura on castor leaves; dose 1 ml/gm/lit.; 10 insects/treatment; 72 hrs after application
Thrips [8] = conditions: Thrips on cotton leaves; dose 1 ml/gm/lit.; 10 insects/treatment; 48 hrs after application
Aphid [9] = conditions: Aphids on cotton plants, green house; dose 1 ml/gm/lit.; 10 insects/plant, 10 plants/treatment; 48 hrs
Mite [10] = conditions: mite on okra plants, green house, dose 1 ml/gm/lit. spray; for % Mortality at 48 Hrs. / Total No. of dead insect at 48 Hrs.: 48 hrs after application; for % Corrected Mortality at 48 Hrs.: corrected for water control
Mealy Bug [11] = conditions: mealy bug on cotton plants, green house, dose 1 ml/gm/lit. spray; for % Mortality at 48 Hrs. / Total No. of dead insect at 48 Hrs.: 48 hrs after application; for % Corrected Mortality at 48 Hrs.: corrected for water control
Helicoverpa armigera [12] = conditions: Helicoverpa armigera 3rd instar on chickpea plants, dose 1 ml/gm/lit. spray; for % Mortality at 72 Hrs.: 72 hrs after application; for % Corrected Mortality at 72 Hrs.: corrected for water control
Thrips [13] = conditions: thrips on cotton plants, greenhouse, dose 1 ml/gm/lit. spray; for % Mortality at 48 Hrs. / Total No. of dead insect at 48 Hrs.: 48 hrs after application; for % Corrected Mortality at 48 Hrs.: corrected for water control
[14] = Table 13, descriptive; no test described; cited from earlier work
Spodoptera litura [15] = experiment: whole plant or invertebrate; conditions: 72 h
Thrips [16] = experiment: whole plant or invertebrate; conditions: in Gossypium hirsutum, 48 h
Aphid [17] = experiment: whole plant or invertebrate; conditions: 48 h
[18] = read-out: % Corrected Mortality at 72 Hrs.
[19] = read-out: % Mortality at 72 Hrs.
[20] = read-out: % Corrected Mortality at 48 Hrs.
[21] = read-out: % Mortality at 48 Hrs.

SMILES: CC1CCC(C(C)C)C(O)C1 (stereo not shown) [Menthol]
- Mean colony Diameter (mm) (Alternaria alternata [1]): 52.00 mm
- inhibition of growth at 1 mL or g/L (Alternaria alternata [1]): 40.9%
- % Disease reduction over Control (Alternaria alternata [2]): 56.20%
- Plant Height 5th Day (tomato seedlings): 6.78 cm
- Stem Girth 5th Day (tomato seedlings): 1.48 mm
- Plant Height 10th Day (tomato seedlings): 7.18 cm
- Stem Girth 10th Day (tomato seedlings): 2.19 mm
- Plant Height % Increase over pre on 10th Day (tomato seedlings): 27.30%
- Stem Girth % Increase over pre on 10th Day (tomato seedlings): 54.01%
- CCI 5th Day (tomato seedlings): 13.48
- CCI % Increase over pre on 10th Day (tomato seedlings): 27.44%
- Root Length (cm) 10th Day (tomato seedlings): 3.93 cm
- CCI 10th Day (tomato seedlings): 14.35
- Root Length % Increase over control (tomato seedlings): 18.18%
- CCI 5th Day (chili seedlings): 10.24
- Plant Height (cm) 5th Day (chili seedlings): 6.48 cm
- CCI % Increase over pre on 10th Day (chili seedlings): 44.78%
- Plant Height % Increase over pre on 10th Day (chili seedlings): 45.21%
- Root Lenght (cm) 10th Day (chili seedlings): 3.02 cm
- Stem Girth % Increase over pre on 10th Day (chili seedlings): 42.37%
- CCI 10th Day (chili seedlings): 13.87
- Plant Height (cm) 10th Day (chili seedlings): 6.52 cm
- Root Lenght % Increase over control (chili seedlings): 10.37%
- Total No. of dead insect at 48 Hrs. (Aphid [3]): 7.00
- % Corrected Mortality at 48 Hrs. (Aphid [3]; 48 hrs): 65.71%
- % Mortality at 48 Hrs. (Aphid [3]; 48 hrs): 70.00%
- Total No. of dead insect at 48 Hrs. (Mite [4]): 4.50
- % Corrected Mortality at 48 Hrs. (Mite [4]): 40.54%
- % Mortality at 48 Hrs. (Mite [4]): 45.00%
- Total No. of dead insect at 48 Hrs. (Mealy Bug [5]): 6.50
- % Mortality at 48 Hrs. (Mealy Bug [5]): 65.00%
- % Corrected Mortality at 48 Hrs. (Mealy Bug [5]): 63.16%
- Total No. of dead insect at 72 Hrs. (Helicoverpa armigera [6]): 6.00
- % Mortality at 72 Hrs. (Helicoverpa armigera [6]): 60.00%
- % Corrected Mortality at 72 Hrs. (Helicoverpa armigera [6]): 60.00%
- Total No. of dead insect at 72 Hrs. (Spodoptera litura [7]): 2.75
- Total No. of dead insect at 48 Hrs. (Thrips [8]): 7.50
- Total No. of dead insect at 48 Hrs. (Aphid [9]): 75.00
- % Mortality at 48 Hrs. (Mite [10]): 42.50%
- Total No. of dead insect at 48 Hrs. (Mite [10]): 42.50
- % Corrected Mortality at 48 Hrs. (Mite [10]): 39.47%
- % Mortality at 48 Hrs. (Mealy Bug [11]): 67.50%
- Total No. of dead insect at 48 Hrs. (Mealy Bug [11]): 67.50
- % Corrected Mortality at 48 Hrs. (Mealy Bug [11]): 63.89%
- % Mortality at 72 Hrs. (Helicoverpa armigera [12]): 55.00%
- % Corrected Mortality at 72 Hrs. (Helicoverpa armigera [12]): 55.00%
- % Mortality at 48 Hrs. (Thrips [13]): 72.50%
- Total No. of dead insect at 48 Hrs. (Thrips [13]): 72.50
- % Corrected Mortality at 48 Hrs. (Thrips [13]): 69.44%
- Acaricidal Activity - Mode of action [14]: Causes mortality & reduction
- Antifungal Activity - Mode of action [14]: Inhibits fungal growth
- Antioxidant Activity - Mode of action [14]: Possesses antioxidant
- Bactericidal Activity - Mode of action [14]: Menthol showed
- Insecticidal Activities - Mode of action [14]: Lower larval weight, reduced
- mortality at 1 mL or g/L (Spodoptera litura [15]; [18]): 23.7%
- mortality at 1 mL or g/L (Spodoptera litura [15]; [19]): 27.5%
- mortality at 1 mL or g/L (Thrips [16]; [20]): 71.4%
- mortality at 1 mL or g/L (Thrips [16]; [21]): 75%
- mortality at 1 mL or g/L (Aphid [17]; [20]): 70.6%
- mortality at 1 mL or g/L (Aphid [17]; [21]): 75%

SMILES: CC1=CC(=O)C(C(C)C)=CC1=O [Thymoquinone]
- Mean colony Diameter (mm) (Alternaria alternata [1]): 54.00 mm
- inhibition of growth at 1 mL or g/L (Alternaria alternata [1]): 38.6%
- % Disease reduction over Control (Alternaria alternata [2]): 44.63%
- Plant Height 5th Day (tomato seedlings): 6.58 cm
- Stem Girth 5th Day (tomato seedlings): 1.68 mm
- Plant Height 10th Day (tomato seedlings): 7.69 cm
- Stem Girth 10th Day (tomato seedlings): 2.30 mm
- Plant Height % Increase over pre on 10th Day (tomato seedlings): 41.36%
- Stem Girth % Increase over pre on 10th Day (tomato seedlings): 74.24%
- CCI 5th Day (tomato seedlings): 14.21
- CCI % Increase over pre on 10th Day (tomato seedlings): 30.73%
- Root Length (cm) 10th Day (tomato seedlings): 4.42 cm
- CCI 10th Day (tomato seedlings): 16.21
- Root Length % Increase over control (tomato seedlings): 32.93%
- CCI 5th Day (chili seedlings): 13.76
- Plant Height (cm) 5th Day (chili seedlings): 5.77 cm
- CCI % Increase over pre on 10th Day (chili seedlings): 58.19%
- Plant Height % Increase over pre on 10th Day (chili seedlings): 63.27%
- Root Lenght (cm) 10th Day (chili seedlings): 4.16 cm
- Stem Girth % Increase over pre on 10th Day (chili seedlings): 57.48%
- CCI 10th Day (chili seedlings): 14
- Plant Height (cm) 10th Day (chili seedlings): 6.89 cm
- Root Lenght % Increase over control (chili seedlings): 52.17%
- Total No. of dead insect at 48 Hrs. (Aphid [3]): 4.75
- % Corrected Mortality at 48 Hrs. (Aphid [3]; 48 hrs): 40.00%
- Total No. of dead insect at 48 Hrs. (Mite [4]): 3.25
- % Corrected Mortality at 48 Hrs. (Mite [4]): 27.03%
- % Mortality at 48 Hrs. (Mite [4]): 32.50%
- Total No. of dead insect at 48 Hrs. (Mealy Bug [5]): 5.25
- % Mortality at 48 Hrs. (Mealy Bug [5]): 52.50%
- % Corrected Mortality at 48 Hrs. (Mealy Bug [5]): 50.00%
- Total No. of dead insect at 72 Hrs. (Helicoverpa armigera [6]): 4.25
- % Mortality at 72 Hrs. (Helicoverpa armigera [6]): 42.50%
- % Corrected Mortality at 72 Hrs. (Helicoverpa armigera [6]): 42.50%
- Total No. of dead insect at 72 Hrs. (Spodoptera litura [7]): 4.25
- Total No. of dead insect at 48 Hrs. (Thrips [8]): 2.25
- Total No. of dead insect at 48 Hrs. (Aphid [9]): 47.50
- % Mortality at 48 Hrs. (Mite [10]): 30.00%
- Total No. of dead insect at 48 Hrs. (Mite [10]): 30.00
- % Corrected Mortality at 48 Hrs. (Mite [10]): 26.32%
- % Mortality at 48 Hrs. (Mealy Bug [11]): 50.00%
- Total No. of dead insect at 48 Hrs. (Mealy Bug [11]): 50.00
- % Corrected Mortality at 48 Hrs. (Mealy Bug [11]): 44.44%
- % Mortality at 72 Hrs. (Helicoverpa armigera [12]): 45.00%
- % Corrected Mortality at 72 Hrs. (Helicoverpa armigera [12]): 45.00%
- % Mortality at 48 Hrs. (Thrips [13]): 20.00%
- Total No. of dead insect at 48 Hrs. (Thrips [13]): 20.00
- % Corrected Mortality at 48 Hrs. (Thrips [13]): 11.11%
- Acaricidal Activity - Mode of action [14]: Contact acaricidal activity
- Antioxidant Activity - Mode of action [14]: Reducing Oxidative Stress
- Bactericidal Activity - Mode of action [14]: Inhibitory effect on spore
- Insecticidal Activities - Mode of action [14]: Decreased larval survival
- mortality at 1 mL or g/L (Spodoptera litura [15]; [18]): 39.5%
- mortality at 1 mL or g/L (Spodoptera litura [15]; [19]): 42.5%
- mortality at 1 mL or g/L (Thrips [16]; [20]): 11.4%
- mortality at 1 mL or g/L (Thrips [16]; [21]): 22.5%
- mortality at 1 mL or g/L (Aphid [17]; [20]): 38.2%
- mortality at 1 mL or g/L (Aphid [17]; [21]): 47.5%
